{"source": "ChEMBL document CHEMBL1140032", "about": "“Furoxan-, alkylnitrate-derivatives and related compounds as anti-trypanosomatid agents: mechanism of action studies” (2008)", "key": {"[1]": {"tested_on": "Leishmania braziliensis", "assay": "Antileishmanial activity against Leishmania braziliensis MHOM/BR/00/LTB300 assessed as parasite viability after 5 days by MTT assay", "assay_type": "functional", "conditions": "120 h, read-out: ID50 (the source's name)"}, "[2]": {"tested_on": "Leishmania pifanoi", "assay": "Antileishmanial activity against Leishmania pifanoi MHOM/VE/57/LV135 assessed as parasite viability after 5 days by MTT assay", "assay_type": "functional", "conditions": "120 h, read-out: ID50 (the source's name)"}, "[3]": {"tested_on": "Trypanosoma cruzi", "assay": "Antitrypanosomal activity against Trypanosoma cruzi Y assessed as parasite viability after 5 days by MTT assay", "assay_type": "functional", "conditions": "120 h, read-out: ID50 (the source's name)"}, "[4]": {"assay": "Inhibition of nitric oxide production by Griess assay", "assay_type": "functional", "set-up": "concentration or dose not given beside the values", "conditions": "dose or concentration not given here"}, "[5]": {"tested_on": "Trypanosoma cruzi", "assay": "Antitrypanosomal activity against Trypanosoma cruzi CL Brener assessed as parasite viability after 5 days by MTT assay", "assay_type": "functional", "conditions": "120 h, read-out: ID50 (the source's name)"}, "[6]": {"tested_on": "Trypanosoma cruzi", "assay": "Antitrypanosomal activity against Trypanosoma cruzi Tulahuen 2 assessed as inhibition of epimastigotes growth after 5 days by MTT assay relative to control", "assay_type": "functional", "conditions": "Tulahuen 2, 120 h, read-out: ID50 (the source's name)"}, "[7]": {"tested_on": "Leishmania pifanoi", "assay": "Antileishmanial activity against Leishmania pifanoi MHOM/VE/57/LV135 at 5.0 uM after 5 days assessed as parasite viability by MTT assay", "assay_type": "functional", "conditions": "120 h, read-out: GI"}, "[8]": {"tested_on": "Trypanosoma cruzi", "assay": "Antitrypanosomal activity against Trypanosoma cruzi CL Brener assessed as lysis of trypomastigotes at 25 uM after 2 hrs relative to control", "assay_type": "functional"}, "[9]": {"tested_on": "Trypanosoma cruzi", "assay": "Antitrypanosomal activity against Trypanosoma cruzi CL Brener assessed as lysis of trypomastigotes at 50 uM after 19 hrs relative to control", "assay_type": "functional"}, "[10]": {"tested_on": "Trypanosoma cruzi", "assay": "Antitrypanosomal activity against Trypanosoma cruzi CL Brener assessed as lysis of trypomastigotes at 50 uM after 2 hrs relative to control", "assay_type": "functional"}, "[11]": {"tested_on": "Trypanosoma cruzi", "assay": "Inhibition of Trypanosoma cruzi Y mitochondrial dehydrogenase activity by MTT assay relative to control"}, "[12]": {"tested_on": "Trypanosoma cruzi", "assay": "Antitrypanosomal activity against Trypanosoma cruzi CL Brener assessed as lysis of trypomastigotes at 25 uM after 19 hrs relative to control", "assay_type": "functional"}, "[13]": {"tested_on": "Trypanosoma cruzi", "assay": "Antitrypanosomal activity against Trypanosoma cruzi CL Brener in Vero cells assessed as number of amastigote infected", "assay_type": "functional"}, "[14]": {"tested_on": "Trypanosoma cruzi", "assay": "Antitrypanosomal activity against Trypanosoma cruzi CL Brener in Vero cells assessed as endocytic index at 2.5 uM", "assay_type": "functional"}, "[15]": {"tested_on": "Trypanosoma cruzi", "assay": "Antitrypanosomal activity against Trypanosoma cruzi CL Brener clone assessed as lysis of trypomastigotes at 10 uM after 26 hrs relative to control", "assay_type": "functional"}, "[16]": {"tested_on": "Trypanosoma cruzi", "assay": "Antitrypanosomal activity against Trypanosoma cruzi CL Brener assessed as lysis of trypomastigotes at 10 uM after 2 hrs relative to control", "assay_type": "functional"}, "[17]": {"tested_on": "Trypanosoma cruzi", "assay": "Antitrypanosomal activity against Trypanosoma cruzi CL Brener in Vero cells assessed as infection", "assay_type": "functional"}, "[18]": {"tested_on": "Trypanosoma cruzi", "assay": "Antitrypanosomal activity against Trypanosoma cruzi CL Brener clone assessed as lysis of trypomastigotes at 10 uM after 3 hrs relative to control", "assay_type": "functional"}}, "note": "Calls of active or inactive are those of the source. No cut-off for these calls is given here."}
{"smiles": "O=S(=O)(c1ccccc1)c1c(-c2ccccc2)no[n+]1[O-]", "values": [{"measurement": "IC50", "setting": "[1]", "result": 1.6, "unit": "µM"}, {"measurement": "IC50", "setting": "[2]", "result": 3.8, "unit": "µM"}, {"measurement": "IC50", "setting": "[3]", "result": 4.3, "unit": "µM"}, {"measurement": "inhibition", "setting": "[4]", "result": 10.3, "unit": "%"}, {"measurement": "IC50", "setting": "[5]", "result": 4.2, "unit": "µM"}, {"measurement": "IC50", "setting": "[6]", "result": 5, "unit": "µM"}]}
{"smiles": "CCOCCS(=O)(=O)c1no[n+]([O-])c1-c1ccccc1", "values": [{"measurement": "IC50", "setting": "[1]", "result": "> 50", "unit": "µM"}, {"measurement": "IC50", "setting": "[2]", "result": "> 50", "unit": "µM"}, {"measurement": "IC50", "setting": "[3]", "result": "> 50", "unit": "µM"}, {"measurement": "inhibition", "setting": "[4]", "result": "< 1", "unit": "%"}, {"measurement": "IC50", "setting": "[5]", "result": "> 50", "unit": "µM"}, {"measurement": "IC50", "setting": "[6]", "result": 17, "unit": "µM"}]}
{"smiles": "COc1ccccc1NCCS(=O)(=O)c1c(-c2ccccc2)no[n+]1[O-]", "values": [{"measurement": "IC50", "setting": "[1]", "result": 13.7, "unit": "µM"}, {"measurement": "IC50", "setting": "[2]", "result": 6.5, "unit": "µM"}, {"measurement": "IC50", "setting": "[3]", "result": 9.2, "unit": "µM"}, {"measurement": "inhibition", "setting": "[4]", "result": 20.8, "unit": "%"}, {"measurement": "IC50", "setting": "[5]", "result": 5, "unit": "µM"}, {"measurement": "IC50", "setting": "[6]", "result": 7.5, "unit": "µM"}]}
{"smiles": "CCCCCCCCCCCCCCCCOP(=O)([O-])OCC[N+](C)(C)C", "note": "[MILTEFOSINE]", "values": [{"measurement": "IC50", "setting": "[1]", "result": 9, "unit": "µM"}, {"measurement": "inhibition of growth at 5 µM", "setting": "[7]", "result": 85.5, "unit": "%"}]}
{"smiles": "COc1ccccc1NCCS(=O)(=O)c1no[n+]([O-])c1-c1ccccc1", "values": [{"measurement": "IC50", "setting": "[1]", "result": 9.9, "unit": "µM"}, {"measurement": "IC50", "setting": "[2]", "result": 33.8, "unit": "µM"}, {"measurement": "IC50", "setting": "[3]", "result": 26.2, "unit": "µM"}, {"measurement": "inhibition", "setting": "[4]", "result": "< 1", "unit": "%"}, {"measurement": "IC50", "setting": "[5]", "result": 7.2, "unit": "µM"}, {"measurement": "IC50", "setting": "[6]", "result": 8, "unit": "µM"}]}
{"smiles": "C=CS(=O)(=O)c1c(-c2ccccc2)no[n+]1[O-]", "values": [{"measurement": "Activity", "setting": "[8]", "result": 33, "unit": "%"}, {"measurement": "IC50", "setting": "[1]", "result": 10, "unit": "µM"}, {"measurement": "Activity", "setting": "[9]", "result": 100, "unit": "%"}, {"measurement": "IC50", "setting": "[2]", "result": 26.7, "unit": "µM"}, {"measurement": "IC50", "setting": "[3]", "result": 6.8, "unit": "µM"}, {"measurement": "Activity", "setting": "[10]", "result": 62, "unit": "%"}, {"measurement": "Activity", "setting": "[11]", "result": "Active"}, {"measurement": "IC50", "setting": "[5]", "result": 2.6, "unit": "µM"}, {"measurement": "Activity", "setting": "[12]", "result": 100, "unit": "%"}, {"measurement": "IC50", "setting": "[6]", "result": 6.5, "unit": "µM"}]}
{"smiles": "CCSCCS(=O)(=O)c1c(-c2ccccc2)no[n+]1[O-]", "values": [{"measurement": "IC50", "setting": "[1]", "result": 4, "unit": "µM"}, {"measurement": "IC50", "setting": "[2]", "result": 4.6, "unit": "µM"}, {"measurement": "IC50", "setting": "[3]", "result": 3.9, "unit": "µM"}, {"measurement": "inhibition", "setting": "[4]", "result": 10, "unit": "%"}, {"measurement": "IC50", "setting": "[5]", "result": 0.9, "unit": "µM"}, {"measurement": "IC50", "setting": "[6]", "result": 7.5, "unit": "µM"}]}
{"smiles": "NC(=O)CS(=O)(=O)c1c(-c2ccccc2)no[n+]1[O-]", "values": [{"measurement": "Activity", "setting": "[13]", "result": 1.6}, {"measurement": "IC50", "setting": "[1]", "result": 14.3, "unit": "µM"}, {"measurement": "Activity", "setting": "[9]", "result": 100, "unit": "%"}, {"measurement": "Activity", "setting": "[14]", "result": 10.1}, {"measurement": "Activity", "setting": "[15]", "result": 100, "unit": "%"}, {"measurement": "Activity", "setting": "[16]", "result": 0, "unit": "%"}, {"measurement": "IC50", "setting": "[2]", "result": "> 50", "unit": "µM"}, {"measurement": "IC50", "setting": "[3]", "result": 6, "unit": "µM"}, {"measurement": "Activity", "setting": "[17]", "result": 6.3, "unit": "%"}, {"measurement": "Activity", "setting": "[18]", "result": 5, "unit": "%"}, {"measurement": "Activity", "setting": "[11]", "result": "Active"}, {"measurement": "IC50", "setting": "[5]", "result": 3.7, "unit": "µM"}, {"measurement": "Activity", "setting": "[12]", "result": 100, "unit": "%"}, {"measurement": "IC50", "setting": "[6]", "result": 10, "unit": "µM"}]}
{"smiles": "O=S(=O)(c1ccccc1)c1no[n+]([O-])c1-c1ccccc1", "values": [{"measurement": "IC50", "setting": "[1]", "result": 20.2, "unit": "µM"}, {"measurement": "IC50", "setting": "[2]", "result": 20.5, "unit": "µM"}, {"measurement": "IC50", "setting": "[3]", "result": "> 50", "unit": "µM"}, {"measurement": "inhibition", "setting": "[4]", "result": "< 1", "unit": "%"}, {"measurement": "IC50", "setting": "[5]", "result": 9.1, "unit": "µM"}, {"measurement": "IC50", "setting": "[6]", "result": 7.5, "unit": "µM"}]}
{"smiles": "O=S(=O)(c1ccccc1)c1nonc1-c1ccccc1", "values": [{"measurement": "IC50", "setting": "[1]", "result": "> 50", "unit": "µM"}, {"measurement": "IC50", "setting": "[2]", "result": "> 50", "unit": "µM"}, {"measurement": "IC50", "setting": "[3]", "result": "> 50", "unit": "µM"}, {"measurement": "IC50", "setting": "[5]", "result": "> 50", "unit": "µM"}, {"measurement": "IC50", "setting": "[6]", "result": 10, "unit": "µM"}]}
{"smiles": "CCOCCS(=O)(=O)c1c(-c2ccccc2)no[n+]1[O-]", "values": [{"measurement": "IC50", "setting": "[1]", "result": 4.1, "unit": "µM"}, {"measurement": "Activity", "setting": "[9]", "result": 100, "unit": "%"}, {"measurement": "IC50", "setting": "[2]", "result": 4.2, "unit": "µM"}, {"measurement": "IC50", "setting": "[3]", "result": 3.4, "unit": "µM"}, {"measurement": "Activity", "setting": "[10]", "result": 68, "unit": "%"}, {"measurement": "Activity", "setting": "[11]", "result": "Active"}, {"measurement": "inhibition", "setting": "[4]", "result": 10, "unit": "%"}, {"measurement": "IC50", "setting": "[5]", "result": 1.5, "unit": "µM"}, {"measurement": "Activity", "setting": "[12]", "result": 100, "unit": "%"}, {"measurement": "IC50", "setting": "[6]", "result": 10, "unit": "µM"}]}
{"smiles": "CCSCCS(=O)(=O)c1no[n+]([O-])c1-c1ccccc1", "values": [{"measurement": "IC50", "setting": "[1]", "result": "> 50", "unit": "µM"}, {"measurement": "IC50", "setting": "[2]", "result": "> 50", "unit": "µM"}, {"measurement": "IC50", "setting": "[3]", "result": 6, "unit": "µM"}, {"measurement": "inhibition", "setting": "[4]", "result": "< 1", "unit": "%"}, {"measurement": "IC50", "setting": "[5]", "result": 37.1, "unit": "µM"}, {"measurement": "IC50", "setting": "[6]", "result": 5, "unit": "µM"}]}
{"smiles": "C=CS(=O)(=O)c1no[n+]([O-])c1-c1ccccc1", "values": [{"measurement": "IC50", "setting": "[1]", "result": 39.1, "unit": "µM"}, {"measurement": "IC50", "setting": "[2]", "result": "> 50", "unit": "µM"}, {"measurement": "IC50", "setting": "[3]", "result": 11.1, "unit": "µM"}, {"measurement": "IC50", "setting": "[5]", "result": 8.2, "unit": "µM"}, {"measurement": "IC50", "setting": "[6]", "result": 5.5, "unit": "µM"}]}
